Tests used:
C57BF6/N male mice [1] = assay: Morphine-induced hyperalgesia and tolerance, tail immersion test; type: in vivo
hNPFF1R = target: T1, hNPFF1R (Homo sapiens, UniProt Q9GZQ6); assay: Glo Sensor cAMP assay in HEK-293 expressing hNPFF1R; type: cell-based
T1 construct: expressed in transfected cells
Description: (§1) The functional characterization of the selected compounds was performed by Glo Sensor cAMP kinetic assay, a validated approach for measuring Gαi/s activation by GPCRs (DiRaddo et al., 2014; Gilissen et al., 2015). HEK-Glo cells expressing either NPFF1 or NPFF2 receptors were suspended (10^6 cells per mF) in physiological Hepes buffer (10 mM HEPES, 0.4 mM NaH2PO4, 137.5 mM NaCl, 1.25 mM MgCl2, 1.25 mM CaCl2, 6 mM KCl, 10 mM glucose and 1 mg/mF bovine serum albumin, pH 7.4) supplemented with 1 mM D-Fuciferine. After equilibration for 2 h at 25° C., luminescence levels were recorded in real time in 96-well plates using a Flexstation^R 3 (Molecular Devices, Sunnyvale Calif., USA). Non-specific effect of the different compounds was evaluated in HEK-Glo cells without any recombinant human RF-amide receptors. To test the agonist activity on NPFF1R and NPFF2R, compounds were injected 15 minutes before addition of forskolin (0.5 μM) and readings were pursued for 90 minutes. To evaluate their antagonist properties, compounds were pre-incubated with cells for 15 minutes before prototypical agonists for NPFF1R (RFRP-3) and NPFF2R (NPFF) receptors. According to their preferential coupling to Gi/o proteins, the stimulation of NPFF1R and NPFF2R by agonists was monitored as a dose-dependent reduction in steady-state luminescence levels, reflecting the inhibition of forskolin-induced cAMP accumulation. Experiments were performed at 25° C. in the presence of 0.5 mM IBMX to prevent the degradation of cAMP by phosphodiesterases.

hNPFF2R = target: T2, hNPFF2R (Homo sapiens, UniProt Q9Y5X5); assay: Glo Sensor cAMP assay in HEK-293 expressing hNPFF2R; type: cell-based; conditions: cells expressing hNPFF2R; forskolin 0.5 μM
T2 construct: expressed in transfected cells
Description: as §1, with “To evaluate their antagonist properties, compounds were pre-incubated with cells for 15 minutes before prototypical agonists for NPFF1R (RFRP-3) and NPFF2R (NPFF) receptors.” left out, “Experiments were performed at 25° C. in the presence of 0.5 mM IBMX to prevent the degradation of cAMP by phosphodiesterases.” left out

[2] = target: T3, human NPFFR1 (hNPFFR1) receptor (Homo sapiens, UniProt Q9GZQ6); assay: Human NPFFR1 evaluation using BRET biosensors in HEK-293 T cells; type: cell-based; conditions: hNPFFR1 in HEK-293 T cells, stimulated by EC80 RFRP-3, read-out: IC50 of antagonist activity
T3 construct: expressed in transfected cells; host or cells: HEK-293 T cells, transient co-transfection
Summary of the method: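 HEK-293 T cells transiently co-expressing hNPFFR1, GαoB and a Gi-effector BRET biosensor pair; agonist read after 10 min compound alone, then antagonism after EC80 RFRP-3 for 10 min. IC50 from 20-point curves over 6 logs, duplicates in two independent experiments.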

C57BF6/N male mice [3] = assay: Incisional pain model, Von Frey test; type: in vivo
[4] = system: NPFFR1 KO and wild-type littermates; assay: Morphine-induced hyperalgesia and tolerance in NPFF1R knockout mice and WT littermates; type: in vivo
[5] = Solubility in dosing vehicle; type: physicochemical; conditions: Tween 80 (0.5%) or Kolliphor EL (10%)
C57BF6/N male mice [6] = assay: Neuropathic pain model (chronic constriction injury), Von Frey test; type: in vivo
C57BF6/N male mice [7] = assay: Fentanyl-induced hyperalgesia, tail immersion test; type: in vivo; conditions: for Hyperalgesia index (HI) d1 to d4: 1j 5 mg/kg p.o. or vehicle 35 min before fentanyl 4×60 μg/kg s.c.

T1 sequence (Q9GZQ6 whole entry): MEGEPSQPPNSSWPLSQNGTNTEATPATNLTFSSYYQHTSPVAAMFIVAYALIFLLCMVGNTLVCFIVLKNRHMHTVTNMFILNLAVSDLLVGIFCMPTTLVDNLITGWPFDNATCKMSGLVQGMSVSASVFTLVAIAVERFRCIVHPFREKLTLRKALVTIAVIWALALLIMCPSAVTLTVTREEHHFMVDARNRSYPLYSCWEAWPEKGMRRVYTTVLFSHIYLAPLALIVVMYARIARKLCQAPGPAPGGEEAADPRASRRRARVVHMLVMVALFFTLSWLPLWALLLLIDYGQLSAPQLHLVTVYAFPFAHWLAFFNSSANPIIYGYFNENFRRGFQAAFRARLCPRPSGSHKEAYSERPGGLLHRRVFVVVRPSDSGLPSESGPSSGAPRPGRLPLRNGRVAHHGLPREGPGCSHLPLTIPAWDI
T2 sequence (Q9Y5X5 whole entry): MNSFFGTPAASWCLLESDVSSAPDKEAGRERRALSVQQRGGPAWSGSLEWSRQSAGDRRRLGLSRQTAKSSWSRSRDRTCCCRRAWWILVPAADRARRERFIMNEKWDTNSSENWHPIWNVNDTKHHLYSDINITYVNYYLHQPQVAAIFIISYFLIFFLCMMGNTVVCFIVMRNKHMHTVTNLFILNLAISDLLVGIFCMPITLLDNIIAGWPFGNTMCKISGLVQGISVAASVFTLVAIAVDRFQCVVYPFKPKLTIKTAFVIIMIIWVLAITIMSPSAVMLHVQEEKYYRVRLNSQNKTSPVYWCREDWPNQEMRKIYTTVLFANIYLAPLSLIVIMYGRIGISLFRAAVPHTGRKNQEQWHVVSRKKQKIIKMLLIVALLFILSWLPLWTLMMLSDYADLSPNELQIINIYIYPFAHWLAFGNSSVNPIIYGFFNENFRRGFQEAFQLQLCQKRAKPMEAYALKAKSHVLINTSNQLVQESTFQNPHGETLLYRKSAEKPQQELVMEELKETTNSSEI
T3 sequence (Q9GZQ6 whole entry): as the sequence (Q9GZQ6 whole entry) above

SMILES: Nc1ccc(-c2cccc(Cl)c2Cl)c(N)n1 [Compound 1j, 3-(2,3-dichlorophenyl)pyridine-2,6-diamine]
- Hyperalgesia index (HI) d1 to d7 (C57BF6/N male mice [1]; daily morphine 10 mg/kg s.c., 1j 5 mg/kg oral or vehicle before morphine, FIG. 2B): 0.1±3
- morphine analgesia at day 0, effect of co-administration (C57BF6/N male mice [1]; mouse, in vivo): not significantly modified
- peak of analgesia at day 0 (C57BF6/N male mice [1]; mouse, in vivo): 19±0.8
- peak of analgesia at day 8 (C57BF6/N male mice [1]; mouse, in vivo): 14±0.9
- antagonist activity: effect on dose response curve of NPVF (RFRP-3), forskolin-stimulated cAMP (hNPFF1R; HEK-293 cells expressing hNPFF1R, FIG. 7): efficiently shifted to the right the dose response curve of NPVF
- effect of compound tested alone (agonist activity) (hNPFF1R; cells expressing hNPFF1R, forskolin 0.5 μM): had no effect
- effect of compound tested alone (agonist activity) (hNPFF2R): had no effect
- IC50 [2]: 100 to 500 nM
- mechanical allodynia after paw incision (allodynia index d1-d6), drug alone (C57BF6/N male mice [3]; morphine 2.5 mg/kg sc. alone or 1j 5 mg/kg po alone, FIG. 3B): slightly attenuated but not significantly the mechanical allodynia
- mechanical allodynia after paw incision (allodynia index d1-d6), pre-treatment before morphine (C57BF6/N male mice [3]; mouse, in vivo): significantly enhanced morphine effect at preventing the mechanical allodynia
- morphine-induced hyperalgesia in NPFF1R KO mice ([4]; NPFF1R KO, 1j 5 mg/kg oral before daily morphine 10 mg/kg s.c., FIG. 5B, C): did not show any significant effect
- morphine-induced hyperalgesia in WT mice ([4]; WT littermates, 1j 5 mg/kg oral before daily morphine 10 mg/kg s.c., FIG. 5B, C): significantly attenuated this hyperalgesia
- morphine analgesia at day 8 in WT mice (tolerance) ([4]; WT littermates, morphine 5 mg/kg s.c., 1j 5 mg/kg oral, FIG. 5D): failed to restore morphine analgesia at day 8
- solubility in vehicle (Kolliphor EL vs Tween 80) [5]: better solubility in Kolliphor EL
- mechanical allodynia after CCI (allodynia index d11-d21), drug alone (C57BF6/N male mice [6]; morphine 3 mg/kg sc. alone or 1j 5 mg/kg p.o. alone, FIG. 4B): significantly attenuated the mechanical allodynia
- mechanical allodynia after CCI (allodynia index d11-d21), pre-treatment before morphine (C57BF6/N male mice [6]; mouse, in vivo): significantly enhanced morphine analgesia effect on neuropathic pain
- fentanyl hyperalgesia (hyperalgesia index d1 to d4) (C57BF6/N male mice [7]; 5 mg/kg sc. 20 min before fentanyl 4×60 μg/kg sc., FIG. 6B): significant anti-hyperalgesic effect
- development of hyperalgesia induced by fentanyl, dose effect (C57BF6/N male mice [7]; 0.2, 1 and 5 mg/kg, sc, 20 min before fentanyl, FIG. 1E, F): dose-dependently prevented
- analgesic effect of fentanyl (AUC) (C57BF6/N male mice [7]; 1j 5 mg/kg p.o. in Kolliphor EL or vehicle before fentanyl 4×60 μg/kg s.c., FIG. 1C): 11.4±3
- ED50 (C57BF6/N male mice [7]; Mus musculus, sc, doses 0.2, 1 and 5 mg/kg, FIG. 1E, read-out: ED50, prevention of fentanyl-induced hyperalgesia): ~0.5 mg/kg
- effect of compound alone on basal nociceptive response (C57BF6/N male mice [7]; mice, tail immersion 48° C., FIG. 1A): did not have any effect
- Hyperalgesia index (HI) d1 to d4 (C57BF6/N male mice [7]; vehicle Kolliphor EL): −1.8±1.2
- Hyperalgesia index (HI) d1 to d4 (C57BF6/N male mice [7]; vehicle tween 80): 2.2±0.3
